In patent US4057684A, “Alkyl amino-glucopyranoside derivative and process for producing the same” (priority 1975, dated 1977):
Where two headings read alike, the source gives them in different places.

Assays:
[1] = cited from earlier work
[2] = peripheral white blood cell counts (bone marrow toxicity) and survival in normal male ICR mice; type: in vivo, mouse (ICR)
Protocol: Such peripheral white blood cell counts were performed as follows: Normal male ICR mice were used in groups of tens and the test compounds for treatment were made into their respective solutions. 2MCαG and 6MCαG were dissolved in physiological saline solutions, while CCNU and GCNU were suspended in 0.5% CMC aqueous solution and 50% PEG aqueous solution, respectively. A single administration at volume of 1 ml per 100 g body weight of animal (0.1 ml/10 g) was given intraperitoneally, and the peripheral white blood cell counts were performed 3, 8 and 15 days after administration of the test compounds.

[3] = cited from earlier work; remark: listed apart in the source
tumor = conditions: in vivo; cited from earlier work

In the case of `CC(=O)OC[C@H]1OC(OC(C)=O)[C@H](NC(=O)N(CCCl)N=O)[C@@H](OC(C)=O)[C@@H]1OC(C)=O` (some centres unmarked) [GCNU, 3-(tetraacetylglucopyranos-2-yl)-1-(2-chloroethyl)-1-nitrosourea, reference compound], the bone marrow toxicity ([1]; in vivo) is given as “reduced bone marrow toxicity”, the leukopenia ([1]; single ip, 15 mg/kg) is given as “without causing leukopenia” and the “Death rate (death/used)” value ([2]; 10 mg/kg ip single) is given as 0/10. The “Average count of WBC” value ([2]; 10 mg/kg ip single, day 3) was 83.1±4.5 x 10^2 WBC/mm^3, the “Average count of WBC” value ([2]; 10 mg/kg ip single, day 8) was 140.3±15.7 x 10^2 WBC/mm^3 and the “Average count of WBC” value ([2]; 10 mg/kg ip single, day 15) was 116.0±10.0 x 10^2 WBC/mm^3. For the same molecule, the “Death rate (death/used)” value ([2]; 20 mg/kg ip single) was 6/10, the “Average count of WBC” value ([2]; 20 mg/kg ip single, day 3) was 60.4±3.6 x 10^2 WBC/mm^3 and the “Average count of WBC” value ([2]; 20 mg/kg ip single, day 8) was 131.4±17.4 x 10^2 WBC/mm^3. For the same molecule, the “Average count of WBC” value ([2]; 20 mg/kg ip single, day 15) was 106.0±9.0 x 10^2 WBC/mm^3, the “Death rate (death/used)” value ([2]; 40 mg/kg ip single) was 10/10 and the “Average count of WBC” value ([2]; 40 mg/kg ip single, day 3) was 33.2±3.3 x 10^2 WBC/mm^3. For the same molecule, the “Death rate (death/used)” value ([2]; 60 mg/kg ip single) was 10/10, the “Average count of WBC” value ([2]; 60 mg/kg ip single, day 3) was 26.5±3.5 x 10^2 WBC/mm^3 and the diabetogenic activity ([3]; test animals) was “nondiabetogenic activity”.

In the case of `CN(N=O)C(=O)N[C@H]1C(O)O[C@H](CO)[C@@H](O)[C@@H]1O` (stereo partly drawn) [streptozotocin, N-carbamyl-N'-methyl-N'-nitroso-2-amino-2-deoxy-D-glucopyranose], the antitumor activity (tumor) is listed as “exhibits an antitumor activity” and the diabetogenic activity ([3]; in vivo) is listed as “diabetogenic”.
